Experimental data reported in publication PMC11093748, “De novo identification of CD4^+ T cell epitopes” (Nature Methods, 2024).

Tests used:
5-4-E8 TCR = assay: Single SABR-II co-incubation, NFAT-GFP Jurkat; type: cell-based, mouse; settings: I-Ad SABR-II; 18-20 h
Text: (§1) We have previously described SABRs, which are chimeric receptors containing an extracellular pMHC complex attached to an intracellular CD28-CD3ζ signaling domain. […] We sought to expand this platform to allow antigen discovery for MHC/HLA-II with seamless integration with class I alleles. Here, we created SABRs to present epitopes in MHC-II alleles, by covalently linking the epitope to the β-chain of MHC-II that is attached to the CD28-CD3ζ signaling domains downstream, along with a 2A peptide-linked MHC-II α-chain (Fig. 1a,b). To test whether SABR-IIs could present epitopes to TCRs and induce a signal, we expressed them using lentiviral vectors in NFAT–GFP Jurkat cells, which express green fluorescent protein (GFP) upon NFAT activation and translocation downstream of CD3ζ activation (a kind gift from Y. Chen and A. Weiss). We constructed murine SABR-IIs presenting epitopes in I-Ab, I-Ad and I-Ag7 (Ova, […][41]; ATEG, […][42]; and 2.5mimo, […][43], respectively). We co-incubated the SABR-II-expressing NFAT–GFP Jurkat cells with a separate population of Jurkat cells expressing either the BDC2.5 TCR (recognizes I-Ag7-2.5mimo), OT-II TCR (recognizes I-Ab-Ova), 5-4-E8 TCR (recognizes I-Ad-ATEG) or no TCR. […]

TCR2 [1] = assay: I-Ag7 SABR-II HIP library screen, enrichment score; type: cell-based, mouse; settings: TCR_Mean of 3 replicates minus PREDICTED_TCR (slope 0.896988, intercept 4.04602e-5)
Text: (§2) Given the predominance of HIP-reactive TCRs, we hypothesized that there may be other TCRs that respond to HIPs that were not encoded in our initial library configuration. While the initial I-Ag7 SABR-II library consisted of a number of HIPs, HIP formation is thought to be more widespread in pancreatic β-cells[52],[70]. Therefore, we sought to construct a defined, HIP-focused library to probe whether there were any undiscovered HIP-reactive TCRs that could be recognized by the clonally expanded TCR in our dataset. To test this, we utilized a published proteomic dataset, which predicted that several proteins that were highly expressed in secretory granules of β-cells may contribute to HIP formation. Using their predictions, we built a theoretical HIP library, in which all possible ‘left’ halves of the insulin C chain derived from natural cleavage products were fused to ‘right’ halves derived from secretory granule proteins (Fig. 5a). This 2,561-epitope library (12–25 amino acids per epitope) consisted of only HIPs and a small number of positive control epitopes (Supplementary Table 5). We screened the top three clonally expanded TCRs (TCR1, TCR2 and TCR3) against this library, as these TCRs had not been de-convoluted using the original library. […] To confirm that the HIP itself was important for the cognate interaction, we cloned single 14-mer epitopes into SABR-IIs consisting of seven amino acids of the left portion of the HIP and seven amino acids of the right portion of the HIP. In this way, no nine amino acids from either peptide sequence alone could occupy the binding pocket of I-Ag7, ensuring that TCR reactivity spanned the HIP junction. […] Of note, in all the epitopes that were tested, the ‘left’ half derived from insulin C was conserved, whereas the ‘right’ halves were derived from several other proteins (Fig. 5d). […] Moreover, the promiscuous binding of TCR3 to HIPs corroborates evidence from other NOD mouse-derived TCRs reacting to multiple HIPs[72].
(§3) To generate the I-Ag7 restricted SABR library, we combined all Immune Epitope Database epitopes with a published immunopeptidome generated by Wan et al.[51]. Sequences were filtered remove all post-translational modifications except deamidation and HIPs and trimmed between 9–25 amino acid lengths. For the insulin C HIP and HLA-DQ8 library, non-contiguous epitopes from Wiles et al.[66] as well as all Immune Epitope Database epitopes were combined to generate the epitope list. Epitope sequences were back-translated using the backtranslate_fast.py script.
(§4) For SABR library screens, 3 × 10^6 NFAT–GFP Jurkat cells expressing the SABR library were labeled with CellTrace Violet (BioLegend) according to the manufacturer’s protocol before incubation with 3 × 10^6 Jurkat cells expressing the TCR of interest. These mixtures were incubated in a six-well plate for 16–20 h. Cells were stained with anti-CD69-APC-Cy7 where indicated (BioLegend) and the top 1–2% of GFP^+CD69^+ cells were sorted for genomic DNA extraction, indexing and sequencing (see below). Multiplexed assays were scaled on a per-TCR basis (for example 3 × 10^6 for each of three TCRs against 9 × 10^6 library cells). For single SABR assays, unless otherwise defined, 5 × 10^5 SABR expressing NFAT–GFP Jurkat cells (or 5KC cells) were labeled with CellTrace Violet (BioLegend) according to the manufacturer’s protocol before incubation with 5 × 10^5 TCR-expressing Jurkat cells (or 5KC cells) in a round-bottom 96-well plate for 16–20 h. Cells were stained with anti-CD69-APC-Cy7 when indicated and acquired on the Attune NxT flow cytometer (Thermo Fisher Scientific). All flow analysis was performed using FlowJo (BD). For Daudi cell co-culture, 1 × 10^6 Jurkat cells expressing the TCR of interest were incubated with 1 × 10^6 Daudi cells expressing a SABR of interest for 3 days. On day 3, cells were labeled with anti-RT1B-PE and anti-Fas-APC-Cy7 before being acquired on the Attune NxT flow cytometer. […]

TCR1 = assay: I-Ag7 SABR-II HIP library screen, enrichment score; type: cell-based, mouse; settings: TCR_Mean of 3 replicates minus PREDICTED_TCR (slope 0.931777, intercept 2.67961e-5)
Text: as §2, §3, §4

TCR2 [2] = assay: Single SABR-II co-incubation, NFAT-GFP Jurkat; type: cell-based, mouse; settings: TCR 2, Ext. Data Fig. 6C, 18-20 hr
In short: (§5)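 Single SABR-II constructs for putative cognate epitopes were expressed in CellTrace Violet-labelled NFAT–GFP Jurkat cells and co-incubated 1:1 (5 × 10^5 each) with TCR-expressing Jurkat cells for 16–20 h. GFP (with CD69 staining when indicated) was measured by flow cytometry. Wells with GFP above the no-TCR control were scored positive.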

Jurkat cells, No TCR = assay: Single SABR-II co-incubation, background without TCR; type: cell-based, human; settings: No TCR
In short: as §5

OT-II TCR = assay: Single SABR-II co-incubation, NFAT-GFP Jurkat; type: cell-based, mouse; settings: I-Ab SABR-II; 18-20 h
Text: as §1

GSE.20D11 TCR = assay: Single SABR-II co-incubation, NFAT-GFP Jurkat (HLA-DQ8); type: cell-based, human; settings: GSE 20.D11 TCR
Text: (§6) We have previously described SABRs, which are chimeric receptors containing an extracellular pMHC complex attached to an intracellular CD28-CD3ζ signaling domain. […] We sought to expand this platform to allow antigen discovery for MHC/HLA-II with seamless integration with class I alleles. Here, we created SABRs to present epitopes in MHC-II alleles, by covalently linking the epitope to the β-chain of MHC-II that is attached to the CD28-CD3ζ signaling domains downstream, along with a 2A peptide-linked MHC-II α-chain (Fig. 1a,b). To test whether SABR-IIs could present epitopes to TCRs and induce a signal, we expressed them using lentiviral vectors in NFAT–GFP Jurkat cells, which express green fluorescent protein (GFP) upon NFAT activation and translocation downstream of CD3ζ activation (a kind gift from Y. Chen and A. Weiss). We constructed murine SABR-IIs presenting epitopes in I-Ab, I-Ad and I-Ag7 (Ova, […][41]; ATEG, […][42]; and 2.5mimo, […][43], respectively). We co-incubated the SABR-II-expressing NFAT–GFP Jurkat cells with a separate population of Jurkat cells expressing either the BDC2.5 TCR (recognizes I-Ag7-2.5mimo), OT-II TCR (recognizes I-Ab-Ova), 5-4-E8 TCR (recognizes I-Ad-ATEG) or no TCR. […] The signal from the NFAT–GFP reporter offered minimal background in absence of a cognate TCR and correlated with surface SABR expression in the presence of a cognate TCR (Extended Data Fig. 1c–e). […] We confirmed the ability of the DQ8-InsB9:23 SABR-II to present the epitope to two previously described, T1D patient-derived TCRs GSE.6H9 and GSE.20D11 (ref. [46]).
(§7) For SABR library screens, 3 × 10^6 NFAT–GFP Jurkat cells expressing the SABR library were labeled with CellTrace Violet (BioLegend) according to the manufacturer’s protocol before incubation with 3 × 10^6 Jurkat cells expressing the TCR of interest. These mixtures were incubated in a six-well plate for 16–20 h. Cells were stained with anti-CD69-APC-Cy7 where indicated (BioLegend) and the top 1–2% of GFP^+CD69^+ cells were sorted for genomic DNA extraction, indexing and sequencing (see below). Multiplexed assays were scaled on a per-TCR basis (for example 3 × 10^6 for each of three TCRs against 9 × 10^6 library cells). For single SABR assays, unless otherwise defined, 5 × 10^5 SABR expressing NFAT–GFP Jurkat cells (or 5KC cells) were labeled with CellTrace Violet (BioLegend) according to the manufacturer’s protocol before incubation with 5 × 10^5 TCR-expressing Jurkat cells (or 5KC cells) in a round-bottom 96-well plate for 16–20 h. Cells were stained with anti-CD69-APC-Cy7 when indicated and acquired on the Attune NxT flow cytometer (Thermo Fisher Scientific). All flow analysis was performed using FlowJo (BD). For Daudi cell co-culture, 1 × 10^6 Jurkat cells expressing the TCR of interest were incubated with 1 × 10^6 Daudi cells expressing a SABR of interest for 3 days. On day 3, cells were labeled with anti-RT1B-PE and anti-Fas-APC-Cy7 before being acquired on the Attune NxT flow cytometer.

GSE.6H9 TCR = assay: as above; type: cell-based, human; settings: GSE 6.H9 TCR
Text: as §6, §7

TCR4 = assay: Single SABR-II co-incubation, NFAT-GFP Jurkat; type: cell-based, mouse; settings: TCR 4
In short: as §5

TCR15 = assay: Single SABR-II co-incubation, NFAT-GFP Jurkat; type: cell-based, mouse; settings: TCR 15, Fig 3B, 18 h
In short: as §5

[3] = Ext. Data Fig. 6C, 18-20 hr, technical replicate 1
[4] = Ext. Data Fig. 6C, 18-20 hr, technical replicate 2
[5] = Fig 3B, 18 h, biological replicate 1
[6] = Fig 3B, 18 h, biological replicate 2
[7] = Fig 3B, 18 h, biological replicate 3

Sequence: ATEGRVRVNSAYQDK
- GFP and CD69 expression in SABR-II-expressing NFAT-GFP Jurkat cells (in words) (5-4-E8 TCR): Robust GFP and CD69 expression

Sequence: VAQLELGGGPGASEASAKKKDESV
- Enrichment score (TCR2 [1]): 0.0007771

Sequence: EVEDPQVEWSRMDQLAKELT
- Enrichment score (TCR1): 0.0005047

Sequence: RQNGVLNSWTDQD
- %GFP+CD69+ cells of SABR-NFAT-GFP-Jurkat cells (TCR2 [2]; technical replicate 1): 1.56%
- %GFP+CD69+ cells of SABR-NFAT-GFP-Jurkat cells (TCR2 [2]; technical replicate 2): 1.62%
- %GFP+CD69+ cells of SABR-NFAT-GFP-Jurkat cells (Jurkat cells, No TCR; [3]): 1.51%
- %GFP+CD69+ cells of SABR-NFAT-GFP-Jurkat cells (Jurkat cells, No TCR; [4]): 1.42%

Sequence: EVEDPQVEQLELSGKEVKGEEKGE
- Enrichment score (TCR1): 0.0005139

Sequence: GAGDLQTLALEVEEEGSANRRAED
- Enrichment score (TCR2 [1]): 0.0005985

Sequence: ISQAVHAAHAEINEAGR [Ova]
- GFP and CD69 expression in SABR-II-expressing NFAT-GFP Jurkat cells (in words) (OT-II TCR): Robust GFP and CD69 expression

Sequence: EVQEKPQELTDQDQSQEESQEG
- Enrichment score (TCR1): 0.0005738

Sequence: SPGDLQTLALEVPSPKESKEADVA
- Enrichment score (TCR1): 0.0005282

Sequence: PGDLQTLALEVALLDEGHYPVRES
- Enrichment score (TCR2 [1]): 0.0008737

Sequence: SHLVEALYLVCERG
- Frequency of %GFP+CD69+ cells of SABR-NFAT-GFP-Jurkat cells (GSE.20D11 TCR; biological replicate 1 of 3): 24.8%
- Frequency of %GFP+CD69+ cells of SABR-NFAT-GFP-Jurkat cells (GSE.20D11 TCR; biological replicate 2 of 3): 42.4%
- Frequency of %GFP+CD69+ cells of SABR-NFAT-GFP-Jurkat cells (GSE.20D11 TCR; biological replicate 3 of 3): 41.1%
- Frequency of %GFP+CD69+ cells of SABR-NFAT-GFP-Jurkat cells (GSE.6H9 TCR; biological replicate 1 of 3): 16.8%
- Frequency of %GFP+CD69+ cells of SABR-NFAT-GFP-Jurkat cells (GSE.6H9 TCR; biological replicate 2 of 3): 29.6%
- Frequency of %GFP+CD69+ cells of SABR-NFAT-GFP-Jurkat cells (GSE.6H9 TCR; biological replicate 3 of 3): 27.9%

Sequence: LQTLALNAARD
- %GFP+CD69+ cells of SABR-NFAT-GFP-Jurkat cells (TCR4; [3]): 22.3%
- %GFP+CD69+ cells of SABR-NFAT-GFP-Jurkat cells (TCR4; [4]): 22%
- %GFP+CD69+ cells of SABR-NFAT-GFP-Jurkat cells (TCR4; [5]): 42.4%
- %GFP+CD69+ cells of SABR-NFAT-GFP-Jurkat cells (TCR4; [6]): 41.7%
- %GFP+CD69+ cells of SABR-NFAT-GFP-Jurkat cells (TCR4; [7]): 45.77%
- %GFP+CD69+ cells of SABR-NFAT-GFP-Jurkat cells (TCR15; biological replicate 1): 43.67%
- %GFP+CD69+ cells of SABR-NFAT-GFP-Jurkat cells (TCR15; biological replicate 2): 48.77%
- %GFP+CD69+ cells of SABR-NFAT-GFP-Jurkat cells (TCR15; biological replicate 3): 51.63%
- %GFP+CD69+ cells of SABR-NFAT-GFP-Jurkat cells (Jurkat cells, No TCR; [3]): 4.02%
- %GFP+CD69+ cells of SABR-NFAT-GFP-Jurkat cells (Jurkat cells, No TCR; [4]): 3.97%
- %GFP+CD69+ cells of SABR-NFAT-GFP-Jurkat cells (Jurkat cells, No TCR; [5]): 2.49%
- %GFP+CD69+ cells of SABR-NFAT-GFP-Jurkat cells (Jurkat cells, No TCR; [6]): 7.87%
- %GFP+CD69+ cells of SABR-NFAT-GFP-Jurkat cells (Jurkat cells, No TCR; [7]): 3.83%

Sequence: EVEDPQVEQLEGEDDPDRSMK
- Enrichment score (TCR2 [1]): 0.000574

Sequence: GDLQTLALEVAQSGKEVKGEEKGE
- Enrichment score (TCR1): 0.0005301

Sequence: EVEDPQVAQLNAARDPNRESLD
- Enrichment score (TCR2 [1]): 0.0005844
